Assay results as given in PMC9775371, “Structure-Based Virtual Screening and Functional Validation of Potential Hit Molecules Targeting the SARS-CoV-2 Main Protease” (Biomolecules, 2022).

Key:
[1] = molecular target: T1, SARS-CoV-2 M^pro (main protease, 3CL^pro) (Severe acute respiratory syndrome coronavirus 2, UniProt P0DTD1); test: BRET-based sensor proteolytic cleavage assay; type: biochemical; conditions: 2 μM purified M^pro preincubated with compound 1 h at 37 °C; TBS, 1 M sodium citrate, 1 mM EDTA, 2 mM DTT; mNG-NLuc sensor substrate in HEK 293T lysate; read at 30 min
T1 construct: gene rep

[2] = molecular target: T1, SARS-CoV-2 M^pro (main protease, 3CL^pro); test: BRET-based sensor proteolytic cleavage assay; type: biochemical; conditions: read-out: Determined EC50
Description: BRET-based sensor proteolytic cleavage assay on SARS-CoV-2 M^pro (main protease, 3CL^pro)

## CCCc1nc2c(C)cc(-c3nc4ccccc4n3C)cc2n1Cc1ccc(-c2ccccc2C(=O)O)cc1 [TM, Telmisartan]
[1]
  EC50 not determined: Telmisartan completely failed to inhibit M^pro

## CCCCc1nc(Cl)c(CO)n1Cc1ccc(-c2ccccc2-c2nn[nH]n2)cc1 [LT, Losartan]
[2]
  EC50: 260 ± 88.6 µM
